Measurements reported in US4680310A, “Tetrahydronaphthalene derivatives” (Hoffmann-La Roche Inc., priority 1984, dated 1987).

Columns and labels:
[1] = tested on: Coronary artery strips of dogs (KCl contracture; tension-dependent calcium channel); test: Relaxation of KCl contracture in coronary artery strips of dogs (test B); assay type: cell-based, dog; conditions: Canis lupus familiaris, KCl 84.7 mM, 37° C., read-out: IC50 (half-maximum relaxation of a KCl contracture)
Experimental: B. Coronary artery strips of dogs:
In this experiment spiral strips (2-2.5 mm wide and 10 mm long) of coronary arteries of dogs are cut and hung up in an organ chamber under an initial tension of 1.5 g. These strips are pre-incubated for a duration of about 1 to 2 hours in Krebs-Henseleit buffer solution which is gassed with Oxycarbon (a mixture of 95% oxygen and 5% carbon dioxide) at 37° C. The relaxing activity of one of these substances is subsequently tested on a KCl (84.7 mM) contracture by the addition of increasing concentrations of the test substance to the organ chamber. The calcium channel-blocking activity of the test substances can therefore be established, as the KCl contracture occurs exclusively by means of calcium flow through the tension-dependent calcium channel.
The activity of a test substance in this test is given by the IC50 value. This value is defined as the substance concentration (in mol/l) which produces a half-maximum relaxation of a KCl contracture. This value is also extrapolated from the resulting concentration-activity curve.

[2] = tested on: ^3 H-nifedipine (or ^3 H-nitrendipine) receptor binding on homogenates or partially-cleaned membranes of rabbit or guinea pig heart; test: ^3 H-Nifedipine binding determinations (test A); conditions: nifedipine established as 100%
Experimental: A. ^3 H-Nifedipine binding determinations:
The determination is carried out on homogenates or on partially-cleaned membranes of rabbit or guinea pig heart. The reaction mixture (0.3 ml) consists of 0.2-0.8 mg of membrane protein, 1 nM of ^3 H-nifedipine (or 0.25 nM of ^3 H-nitrendipine) and various concentrations of the test substances. The incubation lasts 30 minutes at 25° C. or 37° C. and is stopped by dilution with the incubation buffer; a filtration is subsequently carried out. The filter-bound radioactivity is measured with a scintillation counter. Specific binding (i.e. receptor-bound) is defined as the differences between total and unspecific-bound radioactivity. The unspecific binding is determined in the presence of an excess of non-radioactive nifedipine (1 μM).
The activity (potency) of a compound in this test is defined by the IC50 and % maximum inhibition values (% max. inhibition). The IC50 is the substance concentration (in mol/l) which produces a half-maximum inhibition of the specific ^3 H-nifedipine (or ^3 H-nitrendipine) binding. The maximum inhibition of the specific binding is given by the % maximum inhibition value; this value is established as 100% for the reference compound nifedipine. Both parameters are extrapolated from a concentration-binding curve.

narcotized dog = test: Haemodynamic parameters in the narcotized dog (test C); assay type: in vivo; conditions: 0.1 mg/kg i.v.
Source text: C. Haemodynamic parameters in the narcotized dog:
The 4 most important measurement parameters (with respective measurement units) of the haemodynamic experiment are: (1) CBF: Coronary Blood Flow (in ml/min)--the velocity of blood flow through the coronary arteries; (2) HR: heart rate (in beats/min)--the heart frequency; (3) BP: blood pressure (in mm Hg)--the blood pressure; and (4) dp/dt: rate of increase in left ventricular pressure (in mm Hg/sec) as a measurement of the contractility force of the heart. The values are given as the % maximum variation from the initial value (Δ%) per dosage administered.
There is thus obtained not only an overall picture of the activity of the substance, but also an estimation as to the potential selectivity for a specific part of the circulatory system in the entire organism. After the administration of an anaesthetic, the dog is intubated and respired artificially. Blood pH, pCO2, pO2 and haemoglobin are measured hourly with a blood-gas analyser. The blood pressure (systolic and diastolic) is measured with a probe in the aorta abdominalis. The heart frequency is recorded by means of a tachometer, which is disengaged from the pressure pulse. For the other measurements the heart must first be opened in order that a probe can be inserted in the left ventricle (heart chamber) for the pressure measurements (dp/dt). The coronary blood flow is measured with a flowing probe in the left coronary artery (descendens).

Row | Structure (SMILES) | IC50 [1] | % max inhib. (maximum inhibition of specific binding) [2] | BP (blood pressure), % maximum variation from the initial value (narcotized dog) | CBF (Coronary Blood Flow), % maximum variation from the initial value (narcotized dog) | HR (heart rate), % maximum variation from the initial value (narcotized dog) | dp/dt (rate of increase in left ventricular pressure), % maximum variation from the initial value (narcotized dog)
1 | COCC(=O)O[C@]1(CCN(C)CCc2ccc(OC)c(OC)c2)CCc2cc(F)ccc2[C@@H]1C(C)C (relative stereo) [A, 2-[2-[(3,4-Dimethoxyphenethyl)methylamino]ethyl]-6-fluoro-1,2,3,4-tetrahydro-1α-isopropyl-2α-naphthyl methoxyacetate] | 2.8 nM | 77% | -18 Δ % | +93 Δ % | -3 Δ % | -5 Δ %
2 | COc1ccc(CCN(C)CC[C@@]2(OC(C)=O)CCc3cc(OC)c(OC)cc3[C@@H]2C(C)C)cc1OC (relative stereo) [D, 6,7-dimethoxy-2-[2-[(3,4-dimethoxyphenethyl)methylamino]ethyl]-1,2,3,4-tetrahydro-1α-isopropyl-2α-naphthyl acetate] | 87 nM | 82% | -9 Δ % | +58 Δ % | -15 Δ % | +3 Δ %
3 | COCC(=O)O[C@]1(CCN(C)CCc2ccc(OC)c(OC)c2)CCc2cc(OC)c(OC)cc2[C@@H]1C(C)C (relative stereo) [E, 6,7-dimethoxy-2-[2-[(3,4-dimethoxyphenethyl)methylamino]ethyl]-1,2,3,4-tetrahydro-1α-isopropyl-2α-naphthyl methoxyacetate] | 20 nM | 88% | -12 Δ % | +65 Δ % | -7 Δ % | +22 Δ %

Further lines, with some results ahead:

Row | IC50 [1] | % max inhib. (maximum inhibition of specific binding) [2] | Structure (SMILES) | BP (blood pressure), % maximum variation from the initial value (narcotized dog) | CBF (Coronary Blood Flow), % maximum variation from the initial value (narcotized dog) | HR (heart rate), % maximum variation from the initial value (narcotized dog) | dp/dt (rate of increase in left ventricular pressure), % maximum variation from the initial value (narcotized dog)
4 | 6.1 nM | 100% | COCC(=O)O[C@]1(CCN(C)CCc2ccc(OC)c(OC)c2)CCc2cc(F)ccc2[C@@H]1C(C)C [B, [1S,2S]-2-[2-[(3,4-dimethoxyphenethyl)methylamino]ethyl]-6-fluoro-1,2,3,4-tetrahydro-1-isopropyl-2-naphthyl methoxyacetate] | -23 Δ % | +100 Δ % | -20 Δ % | +13 Δ %
5 | 78 nM | 73% | COCC(=O)O[C@@]1(CCN(C)CCc2ccc(OC)c(OC)c2)CCc2cc(F)ccc2[C@H]1C(C)C [C, [1R,2R2-[2[(3,4Dimethoxyphenethyl)methylamino]ethyl6-fluoro-1,2,3,4-tetraydro-1-isopropyl-2-napthyl methoxyacetate] | -16 Δ % | +58 Δ % | -5 Δ % | +26 Δ %
